Experimental data published in patent US20240018161A1, “MODULATORS OF CYSTIC FIBROSIS TRANSMEMBRANE CONDUCTANCE REGULATOR” (VERTEX PHARMACEUTICALS INCORPORATED, priority 2020, published 2024).
Where two headings read alike, the source gives them in different places.

Experiments:
[1] = snar bond, 13-membered ring, NaH, DMF
[2] = target: CFTR-mediated chloride transport in human intestinal epithelial enteroid cells (Homo sapiens, UniProt P13569); assay: Membrane potential dye, Enteroid Assay A; format: cell-based; conditions: Enteroid Assay A; for EC50: read-out: Ent. A EC50
Chain of CFTR-mediated chloride transport in human intestinal epithelial enteroid cells (P13569 with tags, fused parts or gaps DEL508-508): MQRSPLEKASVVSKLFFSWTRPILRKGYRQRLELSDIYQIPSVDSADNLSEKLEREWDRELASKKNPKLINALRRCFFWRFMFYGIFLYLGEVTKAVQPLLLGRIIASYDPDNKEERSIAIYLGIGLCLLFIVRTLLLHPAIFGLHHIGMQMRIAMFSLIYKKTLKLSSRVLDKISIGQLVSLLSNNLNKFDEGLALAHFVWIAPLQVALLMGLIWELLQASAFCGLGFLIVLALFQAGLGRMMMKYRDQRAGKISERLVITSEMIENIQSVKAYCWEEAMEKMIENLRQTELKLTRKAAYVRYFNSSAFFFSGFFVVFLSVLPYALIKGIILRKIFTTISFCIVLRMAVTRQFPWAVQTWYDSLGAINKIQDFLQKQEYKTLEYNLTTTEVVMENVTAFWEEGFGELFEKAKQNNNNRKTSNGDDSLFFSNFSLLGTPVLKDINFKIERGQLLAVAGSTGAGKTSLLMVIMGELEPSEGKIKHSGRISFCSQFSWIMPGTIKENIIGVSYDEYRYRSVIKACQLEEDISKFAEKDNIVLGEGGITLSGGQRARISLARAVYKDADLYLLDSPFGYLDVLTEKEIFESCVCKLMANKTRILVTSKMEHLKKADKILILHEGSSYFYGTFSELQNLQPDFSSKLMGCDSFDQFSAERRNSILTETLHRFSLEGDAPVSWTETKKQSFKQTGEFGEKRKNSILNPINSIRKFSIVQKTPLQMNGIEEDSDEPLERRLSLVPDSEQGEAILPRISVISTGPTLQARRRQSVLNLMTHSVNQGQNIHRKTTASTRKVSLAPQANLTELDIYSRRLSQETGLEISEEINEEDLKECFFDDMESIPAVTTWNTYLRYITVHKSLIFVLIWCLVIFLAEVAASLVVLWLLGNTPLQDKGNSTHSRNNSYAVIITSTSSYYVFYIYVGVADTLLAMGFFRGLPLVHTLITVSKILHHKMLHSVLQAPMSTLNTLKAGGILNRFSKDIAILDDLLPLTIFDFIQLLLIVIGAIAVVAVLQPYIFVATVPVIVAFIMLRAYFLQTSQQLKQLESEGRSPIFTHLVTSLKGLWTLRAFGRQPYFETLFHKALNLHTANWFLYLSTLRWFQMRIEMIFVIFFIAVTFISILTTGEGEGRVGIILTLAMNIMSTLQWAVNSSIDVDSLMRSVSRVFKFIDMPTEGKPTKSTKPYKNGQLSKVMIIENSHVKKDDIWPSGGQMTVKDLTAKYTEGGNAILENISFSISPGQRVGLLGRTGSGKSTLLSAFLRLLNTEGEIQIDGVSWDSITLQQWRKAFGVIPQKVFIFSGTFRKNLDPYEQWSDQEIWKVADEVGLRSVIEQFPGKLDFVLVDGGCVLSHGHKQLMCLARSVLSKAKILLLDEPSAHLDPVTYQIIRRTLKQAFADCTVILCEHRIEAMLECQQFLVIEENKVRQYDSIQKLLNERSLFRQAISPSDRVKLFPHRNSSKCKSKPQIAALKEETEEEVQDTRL
Method in brief: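 Membrane potential dye (20 μM methyl oxonol, with 30 μM CaCCinh-A01 and 30 μM Chicago Sky Blue) loaded 25 min at room temperature into ROCK-inhibitor-seeded human enteroid cells. Chloride-free stimulation buffer triggered transport, followed by 15 min fluorescence. % Activity relative to 3 μM/3 μM/300 nM triple-combination control.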

| SMILES | Ent. A Max Activity (%) [2] | EC50 [2] [nM] | other results |
| --- | --- | --- | --- |
| Cc1cccc(C)c1-c1cc2nc(n1)NS(=O)(=O)c1cccc(c1)C(=O)N1C[C@H](CN(C(=O)OC(C)(C)C)C[C@@H]1CC(C)C)O2 [Compound 100, tert-Butyl (16R,20S)-12-(2,6-dimethylphenyl)-20-(2-methylpropyl)-2,8,8-trioxo-15-oxa-8λ^6-thia-1,9,11,18,22-pentaazatetracyclo[14.4.1.13,7.110,14]tricosa-3(23),4,6,10(22),11,13-hexaene-18-carboxylate] | + (+ is <30%) |  | ring closure, isolated yield ([1]; from Cc1cccc(C)c1-c1cc(Cl)nc(NS(=O)(=O)c2cccc(C(=O)N3CC(O)CN(C(=O)OC(C)(C)C)C[C@@H]3CC(C)C)c2)n1, 31.2 mM, 25.0 °C, 3.08 h): 35% |
| Cc1cccc(C)c1-c1cc2nc(n1)NS(=O)(=O)c1cccc(c1)C(=O)N1C[C@H](CN(C(=O)OC(C)(C)C)C[C@H]1CC(C)C)O2 [Compound 106, tert-Butyl (16R,20R)-12-(2,6-dimethylphenyl)-20-(2-methylpropyl)-2,8,8-trioxo-15-oxa-8λ^6-thia-1,9,11,18,22-pentaazatetracyclo[14.4.1.13,7.110,14]tricosa-3(23),4,6,10(22),11,13-hexaene-18-carboxylate] | + (+ is <30%) |  | ring closure, isolated yield ([1]; from Cc1cccc(C)c1-c1cc(Cl)nc(NS(=O)(=O)c2cccc(C(=O)N3C[C@@H](O)CN(C(=O)OC(C)(C)C)C[C@H]3CC(C)C)c2)n1, 31.3 mM, 2.17 h): 45% |
| Cc1cccc(C)c1-c1cc2nc(n1)NS(=O)(=O)c1cccc(c1)C(=O)N1C[C@H](CN(Cc3ccccc3)[C@H](CC(C)C)C1)O2 [Compound 111, (16S,19R)-18-Benzyl-12-(2,6-dimethylphenyl)-19-(2-methylpropyl)-15-oxa-8λ^6-thia-1,9,11,18,22-pentaazatetracyclo[14.4.1.13,7.110,14]tricosa-3(23),4,6,10(22),11,13-hexaene-2,8,8-trione] | + (+ is <30%) |  | ring closure, isolated yield ([1]; from Cc1cccc(C)c1-c1cc(Cl)nc(NS(=O)(=O)c2cccc(C(=O)N3C[C@@H](O)CN(Cc4ccccc4)[C@H](CC(C)C)C3)c2)n1, 28.6 mM, 4.6 h): 57% |
| Cc1cccc(C)c1-c1cc2nc(n1)NS(=O)(=O)c1cccc(c1)C(=O)N1C[C@@H](CN(C(=O)OC(C)(C)C)C[C@@H]1CCC(C)C)O2 [Compound 129, tert-Butyl (16S,20S)-12-(2,6-dimethylphenyl)-20-(3-methylbutyl)-2,8,8-trioxo-15-oxa-8λ^6-thia-1,9,11,18,22-pentaazatetracyclo[14.4.1.13,7.110,14]tricosa-3(23),4,6,10(22),11,13-hexaene-18-carboxylate] | ++ (++ is 30-60%) | < 1000 | ring closure, isolated yield ([1]; from Cc1cccc(C)c1-c1cc(Cl)nc(NS(=O)(=O)c2cccc(C(=O)N3C[C@H](O)CN(C(=O)OC(C)(C)C)C[C@@H]3CCC(C)C)c2)n1, 29.8 mM, 3.67 h): 53% |
| Cc1cccc(C)c1-c1cc2nc(n1)NS(=O)(=O)c1cccc(c1)C(=O)N1C[C@@H](CN(C(=O)OC(C)(C)C)C[C@@H]1C(C)C)O2 [Compound 132, tert-Butyl (16S,20S)-12-(2,6-dimethylphenyl)-2,8,8-trioxo-20-(propan-2-yl)-15-oxa-8λ^6-thia-1,9,11,18,22-pentaazatetracyclo[14.4.1.13,7.110,14]tricosa-3(23),4,6,10(22),11,13-hexaene-18-carboxylate] | ++ (++ is 30-60%) | < 1000 | ring closure, isolated yield ([1]; from Cc1cccc(C)c1-c1cc(Cl)nc(NS(=O)(=O)c2cccc(C(=O)N3C[C@H](O)CN(C(=O)OC(C)(C)C)C[C@@H]3C(C)C)c2)n1, 29.4 mM, 3.17 h): 46% |

Second part, led by results:

| Ent. A Max Activity (%) [2] | EC50 [2] [nM] | SMILES | other results |
| --- | --- | --- | --- |
| +++ (+++ is >600%) | < 1000 | Cc1cccc(C)c1-c1cc2nc(n1)NS(=O)(=O)c1cccc(c1)C(=O)N1CCN(Cc3ccccc3)C[C@H](O2)[C@H]1CC(C)C [Compound 86, (16S,21R)-18-Benzyl-12-(2,6-dimethylphenyl)-21-(2-methylpropyl)-15-oxa-8λ^6-thia-1,9,11,18,22-pentaazatetracyclo[14.4.1.13,7.110,14]tricosa-3(23),4,6,10(22),11,13-hexaene-2,8,8-trione] | ring closure, isolated yield ([1]; from Cc1cccc(C)c1-c1cc(Cl)nc(NS(=O)(=O)c2cccc(C(=O)N3CCN(Cc4ccccc4)C[C@@H](O)[C@H]3CC(C)C)c2)n1, 16.5 mM, 25.0 °C, 17.0 h): 5% |
| ++ (++ is 30-60%) | < 1000 | Cc1cccc(C)c1-c1cc2nc(n1)NS(=O)(=O)c1cccc(c1)C(=O)N1C[C@@H](CN(C(=O)OC(C)(C)C)C[C@@H]1CC(C)C)O2 [Compound 96, tert-Butyl (16S,20S)-12-(2,6-dimethylphenyl)-20-(2-methylpropyl)-2,8,8-trioxo-15-oxa-8λ^6-thia-1,9,11,18,22-pentaazatetracyclo[14.4.1.13,7.110,14]tricosa-3(23),4,6,10(22),11,13-hexaene-18-carboxylate] | ring closure, isolated yield ([1]; from Cc1cccc(C)c1-c1cc(Cl)nc(NS(=O)(=O)c2cccc(C(=O)N3C[C@H](O)CN(C(=O)OC(C)(C)C)C[C@@H]3CC(C)C)c2)n1, 29.2 mM, 25.0 °C, 5.08 h): 66% |
| ++ (++ is 30-60%) | < 1000 | Cc1cccc(C)c1-c1cc2nc(n1)NS(=O)(=O)c1cccc(c1)C(=O)N1C[C@@H](CN(C(=O)OC(C)(C)C)C[C@H]1CC(C)C)O2 [Compound 102, tert-Butyl (16S,20R)-12-(2,6-dimethylphenyl)-20-(2-methylpropyl)-2,8,8-trioxo-15-oxa-8λ^6-thia-1,9,11,18,22-pentaazatetracyclo[14.4.1.13,7.110,14]tricosa-3(23),4,6,10(22),11,13-hexaene-18-carboxylate] | ring closure, isolated yield ([1]; from Cc1cccc(C)c1-c1cc(Cl)nc(NS(=O)(=O)c2cccc(C(=O)N3C[C@H](O)CN(C(=O)OC(C)(C)C)C[C@H]3CC(C)C)c2)n1, 30.8 mM, 4.17 h): 34% |
| +++ (+++ is >600%) | < 1000 | Cc1cccc(C)c1-c1cc2nc(n1)NS(=O)(=O)c1cccc(c1)C(=O)N1C[C@@H](CN(Cc3ccccc3)[C@@H](CC(C)C)C1)O2 [Compound 109, (16R,19S)-18-Benzyl-12-(2,6-dimethylphenyl)-19-(2-methylpropyl)-15-oxa-8λ^6-thia-1,9,11,18,22-pentaazatetracyclo[14.4.1.13,7.110,14]tricosa-3(23),4,6,10(22),11,13-hexaene-2,8,8-trione] | ring closure, isolated yield ([1]; from Cc1cccc(C)c1-c1cc(Cl)nc(NS(=O)(=O)c2cccc(C(=O)N3CC(O)CN(Cc4ccccc4)[C@@H](CC(C)C)C3)c2)n1, 30.0 mM, 0.0 °C, 7.0 h): 28% |
| +++ (+++ is >600%) | < 1000 | Cc1cccc(C)c1-c1cc2nc(n1)NS(=O)(=O)c1cccc(c1)C(=O)N1CCN(C(=O)OC(C)(C)C)[C@H](CC(C)C)[C@H](C1)O2 [Compound 114, tert-Butyl (16S,17R)-12-(2,6-dimethylphenyl)-17-(2-methylpropyl)-2,8,8-trioxo-15-oxa-8λ^6-thia-1,9,11,18,22-pentaazatetracyclo[14.4.1.13,7.110,14]tricosa-3(23),4,6,10(22),11,13-hexaene-18-carboxylate] | ring closure, isolated yield ([1]; from Cc1cccc(C)c1-c1cc(Cl)nc(NS(=O)(=O)c2cccc(C(=O)N3CCN(C(=O)OC(C)(C)C)[C@H](CC(C)C)[C@@H](O)C3)c2)n1, 30.9 mM, 1.67 h): 34% |
| ++ (++ is 30-60%) | < 1000 | Cc1cccc(C)c1-c1cc2nc(n1)NS(=O)(=O)c1cccc(c1)C(=O)N1CCN(C(=O)OC(C)(C)C)[C@H](CC(C)C)[C@@H](C1)O2 [Compound 115, tert-Butyl (16R,17R)-12-(2,6-dimethylphenyl)-17-(2-methylpropyl)-2,8,8-trioxo-15-oxa-8λ^6-thia-1,9,11,18,22-pentaazatetracyclo[14.4.1.13,7.110,14]tricosa-3(23),4,6,10(22),11,13-hexaene-18-carboxylate] | ring closure, isolated yield ([1]; from Cc1cccc(C)c1-c1cc(Cl)nc(NS(=O)(=O)c2cccc(C(=O)N3CCN(C(=O)OC(C)(C)C)[C@H](CC(C)C)[C@H](O)C3)c2)n1, 31.6 mM, 1.67 h): 67% |
| ++ (++ is 30-60%) | < 1000 | Cc1cccc(C)c1-c1cc2nc(n1)NS(=O)(=O)c1cccc(c1)C(=O)N1CCN(C(=O)OC(C)(C)C)[C@@H](CC(C)C)[C@@H](C1)O2 [Compound 116, tert-Butyl (16R,17S)-12-(2,6-dimethylphenyl)-17-(2-methylpropyl)-2,8,8-trioxo-15-oxa-8λ^6-thia-1,9,11,18,22-pentaazatetracyclo[14.4.1.13,7.110,14]tricosa-3(23),4,6,10(22),11,13-hexaene-18-carboxylate] | ring closure, isolated yield ([1]; from Cc1cccc(C)c1-c1cc(Cl)nc(NS(=O)(=O)c2cccc(C(=O)N3CCN(C(=O)OC(C)(C)C)[C@@H](CC(C)C)[C@H](O)C3)c2)n1, 31.0 mM, 5.17 h): 36% |
| +++ (+++ is >600%) | < 1000 | Cc1cccc(C)c1-c1cc2nc(n1)NS(=O)(=O)c1cccc(c1)C(=O)N1C[C@@H](CN(C(=O)OC(C)(C)C)C[C@H]1C(C)C)O2 [Compound 124, tert-Butyl (16S,20R)-12-(2,6-dimethylphenyl)-2,8,8-trioxo-20-(propan-2-yl)-15-oxa-8λ^6-thia-1,9,11,18,22-pentaazatetracyclo[14.4.1.13,7.110,14]tricosa-3(23),4,6,10(22),11,13-hexaene-18-carboxylate] | ring closure, isolated yield ([1]; from Cc1cccc(C)c1-c1cc(Cl)nc(NS(=O)(=O)c2cccc(C(=O)N3C[C@H](O)CN(C(=O)OC(C)(C)C)C[C@H]3C(C)C)c2)n1, 30.5 mM, 3.17 h): 35% |
